In patent EP0213490A2, “Colour-photographic recording material” (Agfa-Gevaert AG, priority 1985, dated 1987):

How the values were obtained:
[1] = Solubility determination in ethyl acetate (parts by weight of solvent needed to dissolve one part of yellow dye); assay type: physicochemical; settings: Ethylacetat, 60°C
Protocol: Von den erfindungsgemäßen Verbindungen II-1, 11-5 und III-1 sowie von den strukturanalogen Vergleichsverbindungen V-1, V-2, V-3, V-4, V-5 und V-6 wurden deren Löslichkeit in Ethylacetat bei 60°C bestimmt. Hierzu wurde ermittelt, wieviele Gewichtsteile Lösungsmittel zum Lösen eines Gewichtsteils Gelbfarbstoff erforderlich sind. Die miteinander zu vergleichenden Farbstoffe unterschieden sich jeweils ausschließlich in der Substitution des Phenylazorestes

[2] = Dissolving the mask coupler in tricresyl phosphate/ethyl acetate for dispersion preparation; assay type: physicochemical; settings: 55°C
Protocol: Von der erfindungsgemäßen Verbindung 11-1 wurde die Dispersion la und von der betreffenden Vergleichsverbindung V-2 wurde die Dispersion lb jeweils nach der nachfolgend beschriebenen Vorschrift hergestellt. 100 g Maskenkuppler werden in einer Abmischung aus 100 g Trikresylphosphat und 300 g Ethylacetat bei 55^*C gelöst. […] Die Lösung wird in 1 kg einer 7,5 %igen wäßrigen Gelatine, die ebenfalls auf 55°C erhitzt ist und mit 10 g Alkanol XC versehen war, mit einem hochtourigen Mischer einemulgiert. Anschließend wurde das niedrig siedende Lösungsmittel im Vakuum entfernt und die zurückbleibende Dispersion bei 6°C erstarrt.
Gemäß der im Beispiel 2 beschriebenen allgemeinen Vorschrift wurde aus der erfindungsgemäßen Verbindung 11-5 die Dispersion 2a und aus der betreffenden Vergleichsverbindung V-4 die Dispersion 2b hergestellt. (Die Vergleichsverbindung V-4 mußte, damit sie in Lösung ging, in der hydrophoben Dispersionsphase auf 70°C erhitzt werden).

Row | SMILES | 1 Gew.-Teil Verbindung löst sich in X Gew.-Teilen Ethyl-acetat [1] | Dissolution of 100 g Maskenkuppler in 100 g Trikresylphosphat and 300 g Ethylacetat [2]
1 | CCCCCCCCCCCCCC(=O)Nc1ccc(Cl)c(NC2=NN(c3c(Cl)cc(Cl)cc3Cl)C(=O)C2N=Nc2ccc(OC(C)C)c(OC(C)C)c2)c1 (centres unmarked) [II-1] | 2,5 Gew.-Teilen Ethyl-acetat | –
2 | CCCCCCCCCCCCCC(=O)Nc1ccc(Cl)c(NC2=NN(c3c(Cl)cc(Cl)cc3Cl)C(=O)C2N=Nc2ccc(OCCC)c(OCCC)c2)c1 (centres unmarked) [V-3] | 23 Gew.-Teilen Ethyl-acetat | –
3 | CCCCCCCCCCCCCC(=O)Nc1ccc(Cl)c(NC2=NN(c3c(Cl)cc(Cl)cc3Cl)C(=O)C2N=Nc2ccc(OCC)c(OCC)c2)c1 (centres unmarked) [V-2] | 19 Gew.-Teilen Ethyl-acetat | mußte neben Ethylacetat noch soviel Tetrahydrofuran zugesetzt werden, daß sie bei 55 °C in Lösung ging
4 | CCCCCCCCCCCCCC(=O)Nc1ccc(Cl)c(NC2=NN(c3c(Cl)cc(Cl)cc3Cl)C(=O)C2N=Nc2ccc(OC)c(OC)c2)c1 (centres unmarked) [V-1] | 15 Gew.-Teilen Ethyl-acetat | –
